Row | melting point [°C] | Structure (SMILES)
1 | 128 to 130 | O=S(=O)(Nc1cc(Br)c(O)c2ccccc12)c1cccs1
2 | 170 to 176 | O=C(O)C(=NOCc1ccc(Cl)cc1Cl)c1csc(NC(=O)C(F)(F)F)n1
3 | 200 to 201 | CC(C)Cn1c(=O)[nH]c(=O)c2nccnc21
4 | 148 to 150 | O=C(NCc1cncs1)c1ccnc(N2CCN(Cc3ccc(F)cc3)C2=O)c1
5 | 140 to 142 | CC1=C(CCN(O)C(N)=O)/C(=C/c2ccc(S(C)(=O)=O)cc2)c2ccccc21
6 | 143 to 145 | COc1nc(C(F)(F)C(F)(F)F)cc(=O)n1-c1cc(O)c(Cl)cc1F
7 | 150 to 152 | CC1(C)OC[C@H](Cc2ccccc2)N1C(=O)C(=O)c1ccn(-c2ccc(-c3ccccc3)cc2)c1
8 | 205 to 207 | N#Cc1cnc2cc(Br)ccc2c1Nc1ccc(Oc2ccccc2)cc1
9 | 77 to 78 | C=C1CCC2C3CCC4=C(CC=C(OC)C4)C3CCC12C (stereo not drawn)
10 | 112 to 115 | CCOC(=O)C[C@@H](NC(=O)/C=C/S(=O)(=O)c1ccccc1)C(=O)OCC
11 | 238 to 240 | COc1cc(NC(=O)Nc2c(-c3ccccc3Cl)c3cc(C)ccc3oc2=O)cc(OC)c1OC(C)=O
12 | 98 to 115 | CCCN1CCC(Cc2ccc3c(c2)c(Cc2ccc(C(=O)NS(=O)(=O)c4ccccc4C)cc2OC)cn3CCC)C1=O (stereo not drawn)
13 | 148 to 150 | CCCCOc1ccc2c(c1)CCC(C(=O)O)=C2
14 | 104 to 106 | CCOC(=O)Cc1nn(C/C=C/c2cccc(C(F)(F)F)c2F)c(=O)c2ccccc12
15 | 80 to 82 | O=C(O)CCC(=O)c1cccc(C(F)(F)F)c1
16 | 208 to 209 | Oc1ccc(C2(c3ccc(O)cc3)CCCCCC2)cc1
17 | 81 to 82.5 | COc1ccc(/C=C(\C#N)c2ccccc2N)cc1OC1CCCC1
18 | 165 to 167 | CCOc1ccccc1C1OC(=O)NC1=O (stereo not drawn)
19 | 165 to 166 | CC(=O)NCc1ccc(CN2CCN(c3cc(Cl)nc(Cl)n3)CC2)cc1
20 | 94 to 95 | CCCCNC(=O)C1CCCCC1(O)C(=O)c1ccc(OC)cc1 (stereo not drawn)
21 | 109 to 115 | COCCOc1cc2ncnc(NC3=CC(=O)C(Oc4ccc(-n5ccnc5)cc4)=CC3=O)c2cc1OCCOC
22 | 237 to 239 | Cc1cccc(CNC(=O)c2nc3scc(COCc4ccc(C(=O)O)cc4)c3c(=O)[nH]2)c1
23 | 125 | CC(C)(C)OC(=O)n1c(-c2ccc3c(c2)C(C)(C)OC(=O)N3)ccc1[N+](=O)[O-]

Row | melting point [°C] | Structure (SMILES)
24 | 135 to 137 | O=C1Cc2c(Cl)cccc2Sc2ccc(F)cc21
25 | 213 to 217 | O=C1N(c2ccc(Cl)cc2Cl)Cc2cnc(Nc3ccccc3)nc2N1c1cccc(CCO)c1
26 | 125 to 126 | CCS(=O)(=O)c1cc(C(=O)NCC2CCCN2CC2=CCCC2)c(OC)cc1N (stereo not drawn)
27 | 129 to 133 | CS(=O)(=O)c1ncnn1C[C@]1(c2ccccc2Cl)O[C@@H]1c1ccc(Cl)cc1Cl (relative stereo)
28 | 147 to 150 | C=Cc1ccccc1N1CCCCC1
29 | 61 to 64 | CC(C)(C(=O)c1ccc(SCCCCCCS)cc1)N1CCOCC1
30 | 110 to 112 | Cc1ccc2[nH]cc(C3=C(c4cn(C)c5ccc(C)cc45)C(=O)N(C)C3=O)c2c1
31 | 86 to 88 | CC(C)c1cc(Oc2ccc(Cl)cc2)nc(C(C)C)c1N
32 | 128 to 133 | CC(C)(C)c1cc(SC2CC(=O)N(c3ccccc3N3C(=O)CC(Sc4cc(C(C)(C)C)c(O)c(C(C)(C)C)c4)C3=O)C2=O)cc(C(C)(C)C)c1O (stereo not drawn)
33 | 106 to 108 | CCCCC(CC)C(=O)C=P(c1ccccc1)(c1ccccc1)c1ccccc1 (stereo not drawn)
34 | 74 to 78 | CCCCCCCCCCCCCCCCCC(O)c1ccc(C2=NC(C)(C)CO2)c(Cl)c1 (stereo not drawn)
35 | 130 to 131 | CCOC(=O)C1=C(C)Nc2ccnc(OC(C)C)c2C1c1ccccc1C(F)(F)F (stereo not drawn)
36 | 217 to 218 | CN(C)c1ccc2nc3c4ccccc4c(=Nc4ccncc4)cc-3oc2c1
37 | 185 to 188 | N#Cc1ccc(C(N2CCN(c3ncccn3)CC2)N2CCCC2=O)cc1 (stereo not drawn)
38 | 209 | CCCCC1=C(C(=O)OCC)C(c2ccccc2Cl)c2c[nH]nc2N1 (stereo not drawn)
39 | 110 to 111 | Oc1cccc(-c2c3ccccc3c(Br)c3sc4ccccc4c23)c1
40 | 132 to 133 | O=C1NC(=O)C(c2ccc(NCc3ccc(Cl)c(Cl)c3)cc2)S1 (stereo not drawn)
41 | 190 to 193 | CCCc1c(/C=C/c2ccccc2C)nc2ccc(C(=O)OC)cn2c1=O
42 | 149 to 150 | CCCOc1ccccc1C(=O)Nc1ccccc1C(N)=O
43 | 80 to 83 | CC1(C(=O)c2c[nH]c3ncc(-c4cccc(CCCO)c4)nc23)CCCCC1
44 | > 200 | CSc1cc2c(cc1C(F)(F)F)N(C(=O)Nc1ccc(C(=O)Nc3cccnc3)cc1)CC2
45 | 181 to 182 | O=Cc1ccc(OCc2cn(C(c3ccccc3)(c3ccccc3)c3ccccc3)cn2)cc1
46 | 162 | COc1cc2c(cc1OC)CN(CCCSc1ccc(NC(=O)c3cccc4c(=O)c5cccc(F)c5[nH]c34)cc1)CC2

Row | melting point [°C] | Structure (SMILES)
47 | 124 to 127 | Cc1cccc(NC(=O)N(C)C)c1
48 | 110 to 111 | CCc1cccc(CC(=O)O)c1OCCn1cc(C(=O)NCc2ccc(C(F)(F)F)cc2)c(OC(C)C)n1
49 | 71 to 71.5 | CCOC(=O)C=Cc1cccc(C(=O)c2ccc(OC)cc2)c1
50 | 170 to 172 | CON=C(C#N)C(N)=O
51 | 190 to 191 | COc1ccc(Cl)c(Oc2c(NS(=O)(=O)c3ccc(C(C)C)cn3)ncnc2OCCOC(=O)Nc2ccccn2)c1
52 | 124 to 125 | CCOC(=O)COc1ccccc1Cc1ccc2ccccc2c1O
53 | 74 to 77 | COC(=O)c1cccc(-c2nnc(-c3ccc(C(C)C)cc3)o2)c1
54 | 120 to 122 | C#CCNC(=O)N1CC(Oc2ccc(Cl)cc2)C1
55 | 94 | CC(C)(C)OC(=O)C(Nc1ccccc1)c1ccc(Cl)c(Cl)c1 (racemic)
56 | 156 to 157 | COCCn1nc2c(N)nc3ccccc3c2c1CCCCCl
57 | 142 to 143 | CC(=O)SCC(Cc1ccccc1)C(=O)NCc1ccc(C(=O)OCc2ccccc2)cc1 (stereo not drawn)
58 | 98 to 100 | CCn1c(C)c(C2(N(c3ccccc3)c3ccccc3)OC(=O)c3nccnc32)c2ccccc21 (stereo not drawn)
59 | 106 to 107 | O=C(c1ccc(F)cc1)c1ccc(Br)cc1
60 | 256 | CNc1nc2ccncc2[nH]1
61 | 92 to 94 | CCCCCCCCNC(=O)Nc1sc(C(=O)OC(C)CCCCCC)c(C)c1C(=O)OC(C)(C)C (stereo not drawn)
62 | 80 to 81 | CCCCc1oc2ccccc2c1Cc1cc(I)c(OCCN(CC)CC)c(I)c1
63 | 151 to 153 | Cc1cc(OC(C)(C)C(=O)O)c(C)c(Br)c1C
64 | 111 to 113 | C=CCOc1cccc(C2=NNC(=O)CC2)c1
65 | 137 | COc1nc(NS(=O)(=O)c2ccccc2Cl)nc(OC)n1
66 | 212 to 214 | CCCCn1c(=O)c2cc(C(=O)O)cn2c2ccccc21
67 | 140 | COc1ccc(-n2c(-c3ccc([N+](=O)[O-])cc3)nnc2C(C)O)cc1 (stereo not drawn)
68 | 105 to 108 | OC[C@@H](O)CCc1ccc2ccccc2c1O
69 | 206 to 208 | Cc1c(Br)c(=O)oc2nn(Cc3ccccc3Cl)c(C)c12

Row | melting point [°C] | Structure (SMILES)
70 | 115 | C(=Nn1ccnc1)c1ccccc1
71 | 163 to 166 | CCCCc1nn(-c2ccccc2Cl)c(=O)n1Cc1ccc(-c2ccccc2S(=O)(=O)NC(=O)C(F)(F)F)cc1
72 | 125 to 126 | O=C(/C=C/c1ccc(S(=O)(=O)N2CCN(C(c3ccc(F)cc3)c3ccc(F)cc3)CC2)cc1)NO
73 | 189 to 196 | CC(=O)N(C)c1c(I)c(NC(=O)CCCC(=O)O)c(I)c(C(=O)O)c1I
74 | 218 to 221 | CN1C(=O)C(c2cccc(-c3cccnc3F)c2)(c2cc(C=O)n(CCF)c2)N=C1N (stereo not drawn)
75 | 162 to 164 | Cc1nn(-c2cc3nc(S(=O)Cc4ccccc4)sc3cc2F)c(=O)n1C (stereo not drawn)
76 | 95 to 97 | CS(=O)(=O)c1ccc(-n2cc(-c3ccc(OC(F)(F)F)cc3)nc2-c2ccc(Cl)cc2)cc1
77 | 200 | C[C@@H]1CN(CC(=O)Nc2nc3ccccc3n2C)C[C@H](C)N1c1ncnc2sccc12
78 | 113 to 114 | NC(=O)CCCCC(=O)c1ccccc1
79 | 145 to 146 | CCOC(=O)c1cn(-c2nc(F)c(F)c(NC(C)(C)C)c2F)c2c(Cl)c(F)c(F)cc2c1=O
80 | 77 to 78 | Cc1ccc(S(=O)(=O)OC[C@@H]2NC(=O)[C@@H]2N=[N+]=[N-])cc1 (relative stereo)
81 | 70 to 71 | CCc1nc(NC2CCCC2)c(-c2ccccc2)c(NC2CCCC2)n1
82 | 200 to 201 | O=C(NCCc1c[nH]c2ccc([N+](=O)[O-])cc12)C(F)(F)F
83 | 60 to 70 | NC(=O)CNCc1noc([C@H](CCCC2CCCCC2)CC(=O)NO)n1
84 | 192 to 195 | CCN1CC(c2ccccc2)=C(O)C1=O
85 | 203 to 204 | CCOc1cc2cc(C(=O)OC)c(C(=O)OC)c(-c3ccnc(Br)c3)c2cc1OC
86 | 182 to 183 | O=C(c1ccc(F)cc1)c1c(OCc2ccccc2)c(=O)ccn1CCO
87 | 54 to 56 | CCOC(=O)NCCOc1ccc(Oc2cc(F)cc(F)c2)cc1
88 | 73 to 77 | CC(Br)c1cccc2c(-c3ccccc3)onc12 (stereo not drawn)
89 | 41.5 to 42.5 | CCc1cccc2ccc(C=O)c(OCOC)c12
90 | 193 to 195 | COc1ccc(N2CCN(C=C3C(=O)Nc4cc(OC)c(OC)cc43)CC2)cc1OC
91 | 340 to 344 | N#Cc1ccc2c(c1)NC(=O)C2c1ncnc2nn(C3CCCC3)cc12 (stereo not drawn)
92 | 165 to 166 | CCCc1cc2cc(OCC(=O)O)c(Cl)c(Cl)c2s1

Row | Structure (SMILES) | melting point [°C]
93 | COC1CCC2C3CCC4CC(=NO)C(C)CC4(C)C3CCC12C (stereo not drawn) | 203 to 211
94 | CC(C)P1(=O)c2ccccc2CN1c1ccccc1 (stereo not drawn) | 145 to 147
95 | CC(O)=C(C#N)C(=O)Nc1cc(Br)ccc1Br | 148 to 150
96 | O=C(O)CSCn1cnnn1 | 98 to 101
97 | CN(C)C1CCc2[nH]c3ccc(O)cc3c2C1 (stereo not drawn) | 202 to 204
98 | CCc1ncc2c3c(ccc2n1)OCC(CN1CC=C(c2c[nH]c4ccccc24)CC1)O3 (stereo not drawn) | 203 to 211
